Experimental data: patent US11406614B2, “Composition comprising EPA and DHA for an enhanced efficacy of anticancer agents” (Fresenius Kabi Deutschland GmbH, priority 2016, dated 2022)

Test system: human colon adenocarcinoma cell line LS174T
Test: Subcutaneous LS174T xenograft model, tumor growth inhibition
Set-up: species or system BALB/c nude mice
Conditions: mouse, in vivo
Experimental: Example 2 was repeated with the anticancer agent fluorouracil (5-FU) and utilizing a different xen-ograft model involving the human colon adenocarcinoma cell line LS174T.
The suboptimal dose of 5-FU was determined with 75 mg/kg. The anticancer agent was intraperitoneally administered at the suboptimal dose once a week (days 11, 18 and 25 after inoculation). The emulsions were administered intravenously five times a week (Mo-Fr) at a dose of 2 ml/kg.
The results were statistically analyzed.

With `O=c1[nH]cc(F)c(=O)[nH]1` [Composition 5-FU, fluorouracil] the Suboptimal dose was 75 mg/kg.
